Consider seven compounds from patent US20220370416A1, “COMPOUNDS AND METHODS FOR TARGETED DEGRADATION OF KRAS” (Arvinas Operations, Inc., priority 2020, published 2022).

What all share (format): cell-based
Test [1] has as its target T1, KRAS^G12C (Homo sapiens, UniProt P01116, G12C). The experiment in a line: KRAS^G12C degradation by immunoblot in NCI-H23 cells. Also on record: MRTX849-VHL bifunctional compounds engage and degrade endogenous KRAS^G12C in NCI-H2030 cells; endogenous in cells; host or cells: NCI-H2030, NCI-H358, MIA PaCa-2, SW1573, NCI-H23. The note with it: NCI-H23, pre-treatment before LC-2. Here is the method: (§1) NCI-H2030 (CRL-5914), MIA PaCa-2 (CRL-1420), NCI-H23 (CRL-5800), NCI-H358 (CRL-5807), and HCT-116 (CCL-247) cells were obtained from ATCC, expanded immediately, and frozen down. Vials were thawed and used within 20 passages. SW1573 cells were a gift from Arvinas and were handled in the same manner. NCI-H2030, NCI-H23, and NCI-H358 were cultured in RPMI (ATCC30-2001) supplemented with 10% FBS (Biological Industries; cat. no. S1480) and 1% Penicillin-Streptomycin (ThermoFisher; cat. no. 15140122). HCT-116 cells were maintained in high glucose DMEM (ThermoFisher; cat. no. 11965084) supplemented as above. MIA PaCa-2 cells were cultured in high glucose DMEM supplemented with 10% FBS, 2.5% horse serum (ThermoFisher; cat. no. 26050-088; lot 2109875), and 1% Penicillin-Streptomycin. SW1573 cells were maintained in DMEM/F12 Nutrient Mix with GlutaMAX supplement (ThermoFisher; cat. no. 10565018) with 10% FBS and 1% Penicillin-Streptomycin added. DPBS (ThermoFisher; cat. no. 14190250) was used to wash cells and 0.25% Trypsin-EDTA (ThermoFisher; cat. no. […]) was used to detach cells for passaging. […] The VHL ligand was generously provided by Arvinas.
(§2) Between 2.5×10^5 and 6.0×10^5 cells were seeded into 6-well plates (Corning; cat. no. 353046). The next day, media was removed and cells were treated with 2.5 μM LC-2 for 1, 2, 4, 8, 12, or 24 hours. […] For 24-hour time course experiments, cells were treated at the indicated times and concurrently lysed in RIPA buffer supplemented as described previously. For longer time course experiments and time courses in which cells were treated with LC-2 or LC-2 Epimer, cells were concurrently treated with either compound, then lysed by scraping in RIPA buffer at the indicated time points.
(§3) Between 2.5×10^5 and 5.0×10^5 cells were seeded into 6-well plates. The next day cells were pretreated with DMSO, 500 μM or 1 mM VHL ligand, 1 μM epoxomicin, 1 μM […], or 100 nM […] bafilomycin A1 for 1 hour. Media was then removed and cells were treated with DMSO, 2.5 μM LC-2 plus DMSO, 2.5 μM LC-2 Epimer plus DMSO, or co-treated with 2.5 μM LC-2 and the corresponding competitor/inhibitor. H2030 cells were treated for 4 hours and H23 cells were treated for 24 hours, after which cells were lysed by scraping in RIPA buffer supplemented as described previously.
(§4) Cell lysates were clarified at 21000×g for 15 mins at 4° C. Protein levels were quantified using a 50:1 mixture of bicinchoninic acid solution (Millipore Sigma; cat. no. B9643) and 4% (w/v) copper(II) sulfate solution (Millipore Sigma; cat. no. C2284) incubated at 37° C. for 30 mins. Absorbance values at 560 nm were read on an EnVision 2101 Multilabel Reader (PerkinElmer). Proteins were separated using 26 well Criterion TGX precast 4-15% (cat. no. 5671085) or 8-16% (cat. no. 5671105) gradient midi gels. After separation, proteins were transferred to nitrocellulose or PVDF membranes at 76 V for 2 hours at 4° C. Blots were then blocked in 5% milk in tris-buffered saline with Tween-20 (TBST; 20 mM Tris, 150 mM NaCl, 0.02% Tween-20). After blocking, blots were incubated in primary antibody overnight (12-18 hours) at 4° C. or for 2 hours at room temperature with mild agitation at the manufacturer's indicated dilution in either 5% milk or 5% BSA in TBST. Blots were then washed thrice with TBST for 5 mins at room temperature. After washing, blots were incubated with 1:5,000-1:10,000 of donkey anti-rabbit (GE Life Sciences; NA934) or sheep anti-mouse (GE Life Sciences; NA931) secondary antibody diluted in 5% milk for 1 hour at room temperature with mild agitation. Blots were again washed thrice with TBST for 5 mins. Chemiluminescent signal was generated using Amersham ECL Prime Western Blotting Detection Reagant (GE Life Sciences; cat. no. RPN2232) or SuperSignal West Femto Maximum Sensitivity Substrate (ThermoFisher; cat. no. 34095). Images were obtained using a Bio-Rad ChemiDoc Imager.
(In western blotting, separated proteins are transferred to a membrane and probed.)

The target in test [2] is T2, HiBit-KRAS^G12C (Homo sapiens, UniProt P01116, G12C). Description: HiBit degradation assay in MiaPaCa-2 HiBit-KRas^G12C cells. The note with it: 0.5% DMSO, 24 hours; for DC50: read-out: KRas^G12C-HiBiT (MiaPaCa; 0.5% DMSO) IC50. The method, boiled down: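 DC50 and Dmax come from 4-parameter fits of DMSO-normalized HiBit luminescence after 24 hours' exposure at 37° C to 10 μM–20 nM compound in 0.1% or 0.5% DMSO. Cells: MiaPaCa-2 carrying one endogenously HiBit-tagged KRAS^G12C allele; concentrations causing ≥50% […] viability loss (alamar blue) excluded.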
In general terms: HiBiT is a short tag that completes a luciferase, so light tracks the accessible tagged protein.

For test [3], the target named is T2, HiBit-KRAS^G12C. The experiment in a line: HiBit degradation assay in SW1573 HiBit-KRas^G12C cells. Also on record: expressed in transfected cells; host or cells: SW1573 (clone E6), modified pcDNA3.1 vector, TK promoter. As to conditions: 0.5% DMSO, 24 hours; for DC50: read-out: KRas^G12C-HiBiT (SW1573; 0.5% DMSO) IC50***. In a few lines:
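HiBit-KRAS G12C degradation was measured after a 24 h compound exposure (titrated 10 μM–20 nM) in engineered SW1573 cells. Lytic HiBit luminescence, expressed relative to DMSO controls, yielded DC50 and Dmax from 4-parameter fits. Concentrations causing ≥50% loss in alamar blue viability were omitted as cytotoxic.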

Test [4] concerns the target T1, KRAS^G12C. Description: KRAS^G12C engagement and degradation by immunoblot in NCI-H2030 cells. Also noted: MRTX849-VHL bifunctional compounds engage and degrade endogenous KRAS^G12C in NCI-H2030 cells; endogenous in cells; host or cells: NCI-H2030, NCI-H358, MIA PaCa-2, SW1573, NCI-H23. As to conditions: NCI-H2030, 1 μM inhibitor before 2.5 μM LC-2. Here is the method:
as §1, §2, §3, §4

The mark [5] stands for this setting: MiaPaCa-2 HiBit-KRas^G12C cells.

A value given as a limit tells only on which side of the number the result lay.

T1 sequence (P01116 1-188 isoform P01116-2 G12C): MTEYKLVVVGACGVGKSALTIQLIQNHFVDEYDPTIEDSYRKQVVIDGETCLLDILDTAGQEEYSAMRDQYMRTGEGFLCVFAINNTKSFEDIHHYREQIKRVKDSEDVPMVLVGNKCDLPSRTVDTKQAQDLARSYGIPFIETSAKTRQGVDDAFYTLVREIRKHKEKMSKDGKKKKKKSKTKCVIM
T2 sequence (P01116 1-186 isoform P01116-2 G12C limits assumed): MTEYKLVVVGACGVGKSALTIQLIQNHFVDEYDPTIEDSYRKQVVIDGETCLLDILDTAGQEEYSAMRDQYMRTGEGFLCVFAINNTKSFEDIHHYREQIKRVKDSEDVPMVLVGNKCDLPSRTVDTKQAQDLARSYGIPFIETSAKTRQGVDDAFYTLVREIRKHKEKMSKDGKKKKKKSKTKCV

Turning to `CO/C1=C\C(C)=C\[C@@H](C)[C@@H](O)[C@@H](C)C/C(C)=C/C=C/[C@H](OC)[C@@H]([C@@H](C)[C@@H](O)[C@H](C)[C@@]2(O)C[C@@H](O)[C@H](C)[C@@H](C(C)C)O2)OC1=O` [BafA1, bafilomycin A1, reference compound], the “rescue of LC-2 induced KRAS^G12C degradation by inhibitor” value at KRAS^G12C [1] is listed as “unable to rescue”.
On to `C=CC(=O)N1CCN(c2nc(OCCN3CCC(COc4cc([C@H](C(=O)N5C[C@H](O)C[C@H]5C(=O)N[C@@H](C)c5ccc(-c6scnc6C)cc5)C(C)C)on4)CC3)nc3c(F)c(-c4cc(O)cc5ccccc45)c(Cl)cc23)C[C@@H]1CC#N` [Compound 169, (2S,4R)-1-[(2R)-2-[3-({1-[2-({6-chloro-4-[(3S)-3-(cyanomethyl)-4-(prop-2-enoyl)piperazin-1-yl]-8-fluoro-7-(3-hydroxynaphthalen-1-yl)quinazolin-2-yl}oxy)ethyl]piperidin-4-yl}methoxy)-1,2-oxazol-5-yl]-3-methylbutanoyl]-4-hydroxy-N-[(1S)-1-[4-(4-methyl-1,3-thiazol-5-yl)phenyl]ethyl]pyrrolidine-2-carboxamide], for which, at HiBit-KRAS^G12C [2] (MiaPaCa-2 HiBit-KRas^G12C cells, maximum degradation), the “KRas^G12C-HiBiT (MiaPaCa; 0.5% DMSO) DMax” value is given as “A (A ≥ 70)”. Besides, the DC50 on HiBit-KRAS^G12C [2] (setting [5]) fell in the range of 100 to 1000 nM. On HiBit-KRAS^G12C [3] (SW1573 HiBit-KRas^G12C), the “KRas^G12C-HiBiT (SW1573; 0.5% DMSO) Dmax**” value is reported as “A (A ≥ 70)” and the DC50 was < 100 nM.
`C=C(F)C(=O)N1CCN(c2nc(OCCN3CCC(OCCOCC(=O)N[C@H](C(=O)N4C[C@H](O)C[C@H]4C(=O)N[C@@H](C)c4ccc(-c5scnc5C)cc4)C(C)(C)C)CC3)nc3c(F)c(-c4cc(O)cc5ccccc45)c(Cl)cc23)C[C@@H]1CC#N` [Compound 170, (2S,4R)-1-[(2S)-2-{2-[2-({1-[2-({6-chloro-4-[(3S)-3-(cyanomethyl)-4-(2-fluoroprop-2-enoyl)piperazin-1-yl]-8-fluoro-7-(3-hydroxynaphthalen-1-yl)quinazolin-2-yl}oxy)ethyl]piperidin-4-yl}oxy)ethoxy]acetamido}-3,3-dimethylbutanoyl]-4-hydroxy-N-[(1S)-1-[4-(4-methyl-1,3-thiazol-5-yl)phenyl]ethyl]pyrrolidine-2-carboxamide]: the Dmax is 35 to 70% at HiBit-KRAS^G12C [2] (MIA PaCa-2, MiaPaCa-2 HiBit-KRas^G12C cells, maximum degradation, read-out: KRas^G12C-HiBiT (MiaPaCa; 0.5% DMSO) DMax) and > 70% on HiBit-KRAS^G12C [3] (SW1573, SW1573 HiBit-KRas^G12C, read-out: KRas^G12C-HiBiT (SW1573; 0.5% DMSO) Dmax**). Further, the DC50 on HiBit-KRAS^G12C [2] (setting [5]) and on HiBit-KRAS^G12C [3] (SW1573 HiBit-KRas^G12C) was 100 to 1000 nM each time.
Take `C=C(F)C(=O)N1CCN(c2nc(OCCN3CCC(COc4cc([C@@H](C(=O)N5C[C@H](O)C[C@H]5C(=O)N[C@@H](C)c5ccc(-c6scnc6C)cc5)C(C)C)on4)CC3)nc3c(F)c(-c4cc(O)cc5ccccc45)c(Cl)cc23)C[C@@H]1CC#N` [Compound 171, (2S,4R)-1-[(2S)-2-[3-({1-[2-({6-chloro-4-[(3S)-3-(cyanomethyl)-4-(2-fluoroprop-2-enoyl)piperazin-l-yl]-8-fluoro-7-(3-hydroxynaphthalen-1-yl)quinazolin-2-yl}oxy)ethyl]piperidin-4-yl}methoxy)-1,2-oxazol-5-yl]-3-methylbutanoyl]-4-hydroxy-N-[(1S)-1-[4-(4-methyl-1,3-thiazol-5-yl)phenyl]ethyl]pyrrolidine-2-carboxamide]: the DC50 on HiBit-KRAS^G12C [2] (setting [5]) and on HiBit-KRAS^G12C [3] (SW1573 HiBit-KRas^G12C) was > 1000 nM throughout.
`C=CC(=O)N1CCN(c2nc(OCCN3CCC(COc4cc([C@@H](C(=O)N5C[C@H](O)C[C@H]5C(=O)N[C@@H](C)c5ccc(-c6scnc6C)cc5)C(C)C)on4)CC3)nc3c(F)c(-c4cc(O)cc5ccccc45)c(Cl)cc23)C[C@@H]1CC#N` [Compound 172, (2S,4R)-1-[(2S)-2-[3-({1-[2-({6-chloro-4-[(3S)-3-(cyanomethyl)-4-(prop-2-enoyl)piperazin-1-yl]-8-fluoro-7-(3-hydroxynaphthalen-1-yl)quinazolin-2-yl}oxy)ethyl]piperidin-4-yl}methoxy)-1,2-oxazol-5-yl]-3-methylbutanoyl]-4-hydroxy-N-[(1S)-1-[4-(4-methyl-1,3-thiazol-5-yl)phenyl]ethyl]pyrrolidine-2-carboxamide]: the DC50 at HiBit-KRAS^G12C [2] (setting [5]) and at HiBit-KRAS^G12C [3] (SW1573 HiBit-KRas^G12C) was > 1000 nM each time.
Regarding `NS(=O)(=O)OC[C@@H]1C[C@@H](n2ccc3c(N[C@H]4CCc5ccccc54)ncnc32)C[C@@H]1O` [MLN924, reference compound], on KRAS^G12C [4], the “rescue of LC-2 induced KRAS^G12C degradation by inhibitor” value is recorded as “rescued KRAS^G12C levels”.
Same read-out and setting: in the case of `CC[C@H](C)[C@H](NC(=O)[C@H]([C@@H](C)CC)N(C)C(C)=O)C(=O)N[C@H](C(=O)N[C@@H](CC(C)C)C(=O)[C@@]1(C)CO1)[C@@H](C)O` [epoxomicin, reference compound] it was “rescued KRAS^G12C levels”.
